Some test systems named below: U251 CNS; ACHN renal; TK-10 renal; UO-31 renal; OVCAR-3 ovarian; K-562 leukemia; MOLT-4 leukemia; LOX IMVI melanoma; SK-MEL-28 melanoma; SK-MEL-2 melanoma; MDA-MB-231 breast; A498 renal; RPMI-8226 leukemia; PC-3 prostate; SW-620 colon; A549 NSCLC; HS 578T breast; MDA-N.
Test in all cases: NCI anticancer screen, dose series, 48 h

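How tested: cells in 96-well plates exposed to compound for 48 hours at five concentrations. TGI marks complete inhibition of growth.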

With `[N-]=[NH+]CC(=O)OC(COCc1ccccc1)COCc1ccccc1`, the TGI was greater than 100 µM in the assay with U251 CNS; greater than 100 µM in the assay on ACHN renal; greater than 100 µM with TK-10 renal; 63 µM in the assay with UO-31 renal; greater than 100 µM in the assay with OVCAR-3 ovarian; greater than 100 µM in the assay with K-562 leukemia. Besides, the TGI in the assay on MOLT-4 leukemia, with LOX IMVI melanoma, in the assay with SK-MEL-28 melanoma, with SK-MEL-2 melanoma, in the assay on MDA-MB-231 breast and in the assay with A498 renal was greater than 100 µM each time. Further, the TGI with RPMI-8226 leukemia, with PC-3 prostate and in the assay on SW-620 colon was greater than 100 µM each time.
Regarding `COc1cc(C2C3=C(COC3=O)Oc3cc4c(cc32)OCO4)ccc1OC(C)=O` (stereo not given), the TGI in the assay with U251 CNS was greater than 100 µM; in the assay with ACHN renal it was greater than 100 µM; with TK-10 renal it was greater than 100 µM; in the assay on UO-31 renal it was greater than 100 µM; in the assay on K-562 leukemia, greater than 38.7 µM; in the assay on MOLT-4 leukemia it was 98.7 µM. Besides, the TGI was greater than 100 µM in the assay on LOX IMVI melanoma; greater than 100 µM in the assay with SK-MEL-28 melanoma; greater than 100 µM in the assay on SK-MEL-2 melanoma; 27.1 µM in the assay with MDA-MB-231 breast; greater than 30.3 µM in the assay on A498 renal; greater than 100 µM in the assay with RPMI-8226 leukemia. The TGI with A549 NSCLC was greater than 100 µM; with PC-3 prostate, greater than 100 µM; in the assay with SW-620 colon, greater than 100 µM; in the assay with HS 578T breast it was 0.686 µM.
On to `CC1=NN(C(=O)c2ccccc2O)C(=O)/C1=C/c1ccccc1O`, for which the TGI in the assay with U251 CNS was greater than 100 µM; in the assay with ACHN renal it was 33.1 µM; in the assay on MDA-N, greater than 100 µM; in the assay on TK-10 renal, greater than 100 µM; in the assay on UO-31 renal it was 1.56 µM; in the assay with K-562 leukemia, greater than 100 µM. Also, the TGI was 51 µM with MOLT-4 leukemia; 31.9 µM with LOX IMVI melanoma; greater than 100 µM with SK-MEL-28 melanoma; greater than 91.4 µM in the assay on SK-MEL-2 melanoma; greater than 100 µM in the assay with MDA-MB-231 breast; 0.124 µM in the assay on A498 renal. The TGI with RPMI-8226 leukemia, with A549 NSCLC, in the assay on PC-3 prostate and with SW-620 colon was greater than 100 µM in each case.
`O=C(c1ccco1)N(C(=S)N1CCN(c2ccccn2)CC1)C1CCCCC1`: the TGI with U251 CNS, with ACHN renal, in the assay on TK-10 renal, in the assay with UO-31 renal, in the assay on OVCAR-3 ovarian and in the assay on K-562 leukemia was greater than 100 µM in each case. Also, the TGI with MOLT-4 leukemia, with LOX IMVI melanoma, with SK-MEL-28 melanoma, in the assay with SK-MEL-2 melanoma, in the assay on RPMI-8226 leukemia and in the assay with A549 NSCLC was greater than 100 µM each time. In addition, the TGI with SW-620 colon was greater than 100 µM.
For the molecule `CCCn1c(SCC)c2cc3cc4ccccc4cc3cc2c1-c1nc(F)nc(F)n1`, the TGI in the assay on ACHN renal, in the assay on TK-10 renal, in the assay on UO-31 renal, in the assay with OVCAR-3 ovarian, with K-562 leukemia and in the assay on MOLT-4 leukemia was greater than 100 µM in each case. Further, the TGI with LOX IMVI melanoma, with SK-MEL-28 melanoma, in the assay on SK-MEL-2 melanoma, in the assay with RPMI-8226 leukemia, in the assay on A549 NSCLC and in the assay with SW-620 colon was greater than 100 µM each time.
Turning to `CC1=NN(c2nc(N)nc(CSCc3nc(N)nc(N(C)C)n3)n2)C(C)(C)C1`, the TGI was greater than 100 µM in the assay on U251 CNS; greater than 100 µM with ACHN renal; greater than 100 µM in the assay on TK-10 renal; greater than 100 µM with UO-31 renal; greater than 100 µM in the assay on OVCAR-3 ovarian; 32.1 µM in the assay with K-562 leukemia. The TGI with MOLT-4 leukemia, in the assay with LOX IMVI melanoma, in the assay on SK-MEL-28 melanoma, in the assay with SK-MEL-2 melanoma, with MDA-MB-231 breast and with A498 renal was greater than 100 µM in each case. Further, the TGI in the assay on RPMI-8226 leukemia, in the assay on A549 NSCLC, in the assay on PC-3 prostate, with SW-620 colon and in the assay with HS 578T breast was greater than 100 µM each time.
Regarding `CC(C)C1CCC/C=C/C=C/C=C/C=C/C(OC2OC(C)C(O)C(N)C2O)CC2OC(O)(CC(O)CC(O)C(O)CCC(=O)O1)CC(O)C2C(=O)O` (stereo not given), the TGI in the assay on U251 CNS, in the assay on ACHN renal, in the assay on UO-31 renal, in the assay with OVCAR-3 ovarian, in the assay with K-562 leukemia and in the assay with MOLT-4 leukemia was greater than 52.5 µM each time. The TGI in the assay on SK-MEL-28 melanoma, in the assay on A498 renal, in the assay with RPMI-8226 leukemia, in the assay on A549 NSCLC and in the assay on SW-620 colon was greater than 52.5 µM in each case.
As to `COc1cc(NCc2ccc3nc(OC)c(OC)nc3c2)cc(OC)c1OC`, the TGI with U251 CNS, in the assay with ACHN renal, in the assay with MDA-N, with UO-31 renal, with OVCAR-3 ovarian and in the assay on K-562 leukemia was greater than 100 µM throughout. Further, the TGI with MOLT-4 leukemia, in the assay on LOX IMVI melanoma, in the assay with SK-MEL-28 melanoma, in the assay on SK-MEL-2 melanoma, with MDA-MB-231 breast and in the assay on A498 renal was greater than 100 µM throughout. Moreover, the TGI in the assay on A549 NSCLC, in the assay with PC-3 prostate and in the assay on SW-620 colon was greater than 100 µM each time.
Turning to `O=C1c2ccccc2C2=Nc3ccncc3CN12`, the TGI in the assay with U251 CNS, in the assay on ACHN renal, in the assay on MDA-N, in the assay on TK-10 renal, with UO-31 renal and in the assay on OVCAR-3 ovarian was greater than 100 µM each time. For the same molecule, the TGI in the assay with K-562 leukemia, in the assay on MOLT-4 leukemia, in the assay with SK-MEL-28 melanoma, in the assay on SK-MEL-2 melanoma, with RPMI-8226 leukemia and in the assay with A549 NSCLC was greater than 100 µM each time. Moreover, the TGI with PC-3 prostate and in the assay with SW-620 colon was greater than 100 µM each time.
With `Cc1cc(NCCCCCCCCCC[n+]2c(C)cc(N)c3ccccc32)c2ccccc2n1`, the TGI in the assay on U251 CNS is 4.3 µM; in the assay on ACHN renal, 10.1 µM; with MDA-N, 3.61 µM; in the assay with TK-10 renal it was 18.3 µM; in the assay with UO-31 renal, 26.4 µM; with OVCAR-3 ovarian it was 65.9 µM. Further, the TGI was 2.36 µM with K-562 leukemia; 5.23 µM in the assay on MOLT-4 leukemia; 3.82 µM with SK-MEL-28 melanoma; 7.29 µM in the assay with SK-MEL-2 melanoma; 5.61 µM in the assay with MDA-MB-231 breast; 15.4 µM with A498 renal. For the same molecule, the TGI was determined as 2.28 µM with RPMI-8226 leukemia, 61.8 µM in the assay on A549 NSCLC, 13.7 µM with PC-3 prostate and 21.2 µM in the assay with SW-620 colon.

(Values after PubChem BioAssay (NCI).)
